Paper PMC8279408
Entries after “also recorded” stand apart in the source; their conditions may differ.

Assays:
patients = settings: over ∼1 year; cited from earlier work
[1] = target: human glucagon like peptide-1 receptor (human) (UniProt P43220)
Water solubility = assay type: physicochemical; settings: in distilled water
Description: The synthesis of dicyanocobinamide (Cbi) was performed according to previously reported methods.[59] Briefly, to a 10 mL microwave reaction vessel containing a magnetic stir bar were added B12 (cyanocobalamin) (303.8 mg, 0.225 mmol) (see Figures S1–S6), sodium cyanide (NaCN) (36.9 mg, 0.7096 mmol), and 5 mL of EtOH, and the vessel was sealed. The reaction was heated to 120 °C for 10 min. Following completion of the microwave reaction, the remaining solution was transferred and diluted using isopropyl alcohol (iPrOH). The reaction was purified utilizing a normal-phase silica column. The reaction was eluted using 100% methanol (MeOH). The product eluted as a purple product. The isolated product was precipitated utilizing diethyl ether (Et2O) and allowed to dry producing a solid, purple product, 2 (see Figure 2), in 80% yield (187.4 mg, 0.1795 mmol). Solubility was measured to be 400 mg/mL in distilled water.

shrews = test: Food intake and body weight (energy balance) in shrews; assay type: in vivo, Suncus murinus; settings: 5 nmol/kg IP, single dose, n = 10 shrews
Description: Food intake was evaluated using our custom-made feedometers, consisting of a standard plexiglass rodent housing cage (29 × 19 × 12.7 cm) with mounted food hoppers resting on a plexiglass cup (to account for spillage). Shrews had ad libitum access to powdered food through a circular (3 cm diameter) hole in the cage. Food was removed 1 h prior to the dark onset. […] Food intake was manually measured at 6, 24, and 48 h post injection. BW was measured at 0, 24, and 48 h.

rat GLP-1R (rat) = rat GLP-1R (rat) (UniProt P32301)
[2] = target: human glucagon like peptide-1 receptor (human) (UniProt P43220); test: AlphaScreen or HTRF; Taglite fluorescence competitive binding assay (Euroscreen Fast, Cat No. FAST0154B) on CHO-K1 cells at the human GLP-1R; agonist tracer GLP-1red at 4 nM, reference competitor nEx-4; nine concentrations from 1 pM to 1 uM, duplicate independent runs

human glucagon like peptide-1 receptor (human), sequence (P43220 24-463): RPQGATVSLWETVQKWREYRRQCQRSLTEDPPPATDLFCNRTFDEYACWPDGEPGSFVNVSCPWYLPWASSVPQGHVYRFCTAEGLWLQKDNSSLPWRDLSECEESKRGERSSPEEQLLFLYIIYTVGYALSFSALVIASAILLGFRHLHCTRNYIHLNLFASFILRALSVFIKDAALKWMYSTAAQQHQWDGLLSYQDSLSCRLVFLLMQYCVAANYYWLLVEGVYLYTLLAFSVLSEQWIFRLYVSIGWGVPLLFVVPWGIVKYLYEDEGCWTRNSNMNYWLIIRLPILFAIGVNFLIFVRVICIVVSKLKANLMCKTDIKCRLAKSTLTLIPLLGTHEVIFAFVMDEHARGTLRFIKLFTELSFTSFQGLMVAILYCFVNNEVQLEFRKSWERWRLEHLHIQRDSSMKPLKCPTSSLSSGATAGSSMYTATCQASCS
rat GLP-1R (rat), sequence (P32301 22-463): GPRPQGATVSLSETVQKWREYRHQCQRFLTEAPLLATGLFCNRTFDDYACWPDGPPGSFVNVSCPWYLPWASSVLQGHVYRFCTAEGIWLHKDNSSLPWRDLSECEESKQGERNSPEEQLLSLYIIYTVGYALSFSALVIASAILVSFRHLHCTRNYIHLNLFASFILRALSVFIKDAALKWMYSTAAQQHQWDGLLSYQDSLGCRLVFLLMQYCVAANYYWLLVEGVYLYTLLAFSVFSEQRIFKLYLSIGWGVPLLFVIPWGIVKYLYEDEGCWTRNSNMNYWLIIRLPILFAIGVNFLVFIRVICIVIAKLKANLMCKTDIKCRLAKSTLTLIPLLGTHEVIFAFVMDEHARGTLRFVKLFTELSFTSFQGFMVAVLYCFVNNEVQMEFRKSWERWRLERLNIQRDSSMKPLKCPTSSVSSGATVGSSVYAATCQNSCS

In the case of semaglutide, the Body weight reduction (patients) is given as 10–12%.
In the case of “liraglutide (HAEGTFTSDVSSYLEGQAAKEFIAWLVRGRG; chains of the INN, looked up) [GLP-1R agonist]”, the Body weight reduction (patients) is listed as 5–6%.
In the case of “exendin-4 with K12 azido modification (from UniProt P26349 48-87) (peptide)”, the EC50 of agonism: cAMP FRET reporter H188 in HEK293 cells stably expressing the human GLP-1R [1] is reported as 12.5 pM.
For `C/C1=C2/[N-]C([C@H](CC(N)=O)[C@@]2(C)CCC(=O)NCC(C)O)[C@]2(C)N=C(/C(C)=C3N=C(/C=C4N=C1[C@@H](CCC(N)=O)C\4(C)C)[C@@H](CCC(N)=O)[C@]\3(C)CC(N)=O)[C@@H](CCC(N)=O)[C@]2(C)CC(N)=O.[C-]#N.[C-]#N.[Co]` (stereo partly drawn) [compound 2, dicyanocobinamide], the Solubility (Water solubility) was 400 mg/mL.
For Cbi-Ex4 [compound 1], the Food intake (shrews; 6, 24, 48 h (72 h in Figure 6D)) was “had no effect on food intake; also recorded: had no impact on feeding” and the Body weight (shrews; 24 h) was “No significant changes in body weight; also recorded: not observed”.
In the case of “exendin-4 with an azido-lysine added as residue 40 (from UniProt P26349 48-87) (peptide)”, the EC50 of agonism: cAMP FRET reporter H188 in HEK293 cells stably expressing the human GLP-1R [1] is reported as 10.4 pM.
With “native Exendin-4 (from UniProt P26349 48-87) (peptide)” the EC50 of functional agonism at the rat GLP-1R (rat GLP-1R (rat)) was 48 pM and the IC50 [2] was 4970 pM.
